From ChEMBL document CHEMBL1201862, “PubChem BioAssay data set” (2004)
Where “and” joins values, the source holds several entries; their conditions need not be identical. Equal entries are not always repeated.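 Results reflect a 48-hour exposure of cells in 96-well plates to compound at five concentrations. The concentration for 50% growth inhibition is given as GI50.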 Calls of active or inactive are those of the source. No stated cut-off is given here; in the data, active = GI50 up to about 1.1 µM and inactive = higher.

Tests used:
Assay in all cases: growth of human tumour cells (NCI), 48 h
PC-3 = tested on: PC-3
ACHN = tested on: ACHN
MDA-MB-231 = tested on: MDA-MB-231
Hs-578T = tested on: Hs-578T
A549 = tested on: A549
SF-268 = tested on: SF-268
HT-29 = tested on: HT-29
EKVX = tested on: EKVX
CAKI-1 = tested on: CAKI-1
OVCAR-4 = tested on: OVCAR-4
MDA-N = tested on: MDA-N
SW-620 = tested on: SW-620
A498 = tested on: A498
SK-MEL-2 = tested on: SK-MEL-2
HOP-92 = tested on: HOP-92
KM12 = tested on: KM12
T47D = tested on: T47D
SR = tested on: SR
CCRF-CEM = tested on: CCRF-CEM

Row | SMILES | GI50 (PC-3) | GI50 (ACHN) | GI50 (MDA-MB-231) | GI50 (Hs-578T) | GI50 (A549) | GI50 (SF-268) | GI50 (HT-29) | GI50 (EKVX) | GI50 (CAKI-1) | GI50 (OVCAR-4) | GI50 (MDA-N) | GI50 (SW-620) | GI50 (A498) | GI50 (SK-MEL-2) | GI50 (HOP-92) | GI50 (KM12) | GI50 (T47D) | GI50 (SR) | GI50 (CCRF-CEM)
1 | Cc1ccc(/C=C2/N/C(=N\N=C/C(O)C(O)C(O)CO)NC2=O)cc1 (stereo not drawn) | > 100 µM (inactive) | > 100 µM (inactive) | > 100 µM (inactive) | > 100 µM (inactive) | > 100 µM (inactive) | > 100 µM (inactive) | > 100 µM (inactive) | > 100 µM (inactive) | > 100 µM (inactive) | 33.1 µM (inactive) and 35.8 µM (inactive) | > 100 µM (inactive) | > 100 µM (inactive) | > 100 µM (inactive) | > 100 µM (inactive) | > 100 µM (inactive) | > 100 µM (inactive) | 79.4 µM (inactive) | > 100 µM (inactive) | –
2 | O=C1C2C(c3ccccc3)NC(c3ccccc3)C1C(c1ccccc1)NC2c1ccccc1 (stereo not drawn) | > 100 µM (inactive) | > 100 µM (inactive) | > 100 µM (inactive) | > 100 µM (inactive) | > 100 µM (inactive) | > 100 µM (inactive) | > 100 µM (inactive) | > 100 µM (inactive) | > 100 µM (inactive) | > 100 µM (inactive) | > 100 µM (inactive) | > 100 µM (inactive) | > 100 µM (inactive) | > 100 µM (inactive) | > 100 µM (inactive) | > 100 µM (inactive) | > 100 µM (inactive) | > 100 µM (inactive) | > 100 µM (inactive)
3 | CC(C)C(C/C=C1\CC(CO)(COC(=O)C2CCCCC2)OC1=O)C(C)C (stereo not drawn) | 18.2 µM (inactive) | 16 µM (inactive) | 16.8 µM (inactive) | 13.2 µM (inactive) | 16.8 µM (inactive) | 17.7 µM (inactive) | 30.6 µM (inactive) | 19 µM (inactive) | 18.7 µM (inactive) | 18 µM (inactive) | 24.1 µM (inactive) | 21.3 µM (inactive) | 44.8 µM (inactive) | > 100 µM (inactive) | 16.9 µM (inactive) | 18.4 µM (inactive) | 21.2 µM (inactive) | 27 µM (inactive) | 16.9 µM (inactive)
4 | C=CCN1C(=O)CS/C1=N\NC(=O)CSc1nc2ccccc2c(=O)n1CC | > 100 µM (inactive) | > 100 µM (inactive) | > 100 µM (inactive) | > 100 µM (inactive) | > 100 µM (inactive) | > 100 µM (inactive) | > 100 µM (inactive) | > 100 µM (inactive) | 75.2 µM (inactive) | > 100 µM (inactive) | > 100 µM (inactive) | > 100 µM (inactive) | 35 µM (inactive) | > 100 µM (inactive) | – | > 100 µM (inactive) | > 100 µM (inactive) | > 100 µM (inactive) | > 100 µM (inactive)
5 | O=C(NC1(c2cc3ccccc3s2)CCCCC1)C1CCC1 | > 100 µM (inactive) | > 100 µM (inactive) | 69.5 µM (inactive) | 37.1 µM (inactive) | > 100 µM (inactive) | – | > 100 µM (inactive) | > 100 µM (inactive) | > 100 µM (inactive) | 97.5 µM (inactive) | > 100 µM (inactive) | > 100 µM (inactive) | > 100 µM (inactive) | > 100 µM (inactive) | > 100 µM (inactive) | > 100 µM (inactive) | > 100 µM (inactive) | > 100 µM (inactive) | > 100 µM (inactive)
6 | COC(=O)c1ccccc1/C=C1\Cc2cc(C)cc(C)c2C1=O | > 100 µM (inactive) | > 100 µM (inactive) | > 100 µM (inactive) | > 100 µM (inactive) | > 100 µM (inactive) | > 100 µM (inactive) | > 100 µM (inactive) | > 100 µM (inactive) | – | – | > 100 µM (inactive) | > 100 µM (inactive) | > 100 µM (inactive) | > 100 µM (inactive) | – | > 100 µM (inactive) | > 100 µM (inactive) | > 100 µM (inactive) | > 100 µM (inactive)
7 | O=C1CSC(c2ccc(Cl)cc2)N1c1ccc(-n2c(-c3ccccc3)nc3ccccc3c2=O)cc1 (stereo not drawn) | 53.8 µM (inactive) | > 100 µM (inactive) | 33.2 µM (inactive) | 52.7 µM (inactive) | 60.8 µM (inactive) | 88.1 µM (inactive) | 84.7 µM (inactive) | > 100 µM (inactive) | > 100 µM (inactive) | 12.9 µM (inactive) | > 100 µM (inactive) | 76 µM (inactive) | 83.4 µM (inactive) | > 100 µM (inactive) | 10.3 µM (inactive) | 24.4 µM (inactive) | 8.36 µM (inactive) | 77.4 µM (inactive) | 45.7 µM (inactive)
8 | O=C(Nc1ccc(Cl)cc1)[C-](C(=O)c1ccc(Br)cc1)[n+]1cccc(-c2ccc(Cl)cc2)n1 | 3.95 µM (inactive) | 4.84 µM (inactive) | 31.2 µM (inactive) | 4.25 µM (inactive) | 3.72 µM (inactive) | 4.62 µM (inactive) | – | 3.49 µM (inactive) | 2.56 µM (inactive) | 3.65 µM (inactive) | 4.53 µM (inactive) | 4.3 µM (inactive) | 9.71 µM (inactive) | 3.57 µM (inactive) | 3.61 µM (inactive) | 3.1 µM (inactive) | 1.64 µM (inactive) | 2.27 µM (inactive) | –
9 | CCOC(=O)C(Cl)(Cl)/S(=N\S(=O)(=O)c1ccccc1)NC(=O)c1ccccc1 (stereo not drawn) | > 100 µM (inactive) | > 100 µM (inactive) | > 100 µM (inactive) | > 100 µM (inactive) | > 100 µM (inactive) | > 100 µM (inactive) | > 100 µM (inactive) | > 100 µM (inactive) | – | > 100 µM (inactive) | > 100 µM (inactive) | > 100 µM (inactive) | > 100 µM (inactive) | > 100 µM (inactive) | > 100 µM (inactive) | > 100 µM (inactive) | > 100 µM (inactive) | > 100 µM (inactive) | > 100 µM (inactive)
10 | O=c1cc(-c2ccccc2)[nH]c2ccc(N3CCCC3)cc12 | 0.0282 µM (active) | 0.0222 µM (active) | 0.103 µM (active) | < 0.0173 µM (active) | 0.0555 µM (active) | 0.173 µM (active) | 0.0146 µM (active) | – | < 0.0175 µM (active) | – | < 0.01 µM (active) | < 0.01 µM (active) | 0.0272 µM (active) | 0.0484 µM (active) | 0.037 µM (active) | 0.039 µM (active) | > 100 µM (inactive) | 0.0184 µM (active) | < 0.0149 µM (active)
11 | Cc1nn(-c2ccccn2)c2c1C(SC#N)=C(C=O)CC2 | 19.7 µM (inactive) | 16.3 µM (inactive) | 18 µM (inactive) | 33.7 µM (inactive) | 14.8 µM (inactive) | 16.5 µM (inactive) | 16.1 µM (inactive) | 16.9 µM (inactive) | 5.64 µM (inactive) | – | 17.7 µM (inactive) | 13.7 µM (inactive) | 2.29 µM (inactive) | 16.9 µM (inactive) | 16.5 µM (inactive) | 16.7 µM (inactive) | 4.05 µM (inactive) | 10.1 µM (inactive) | 2.12 µM (inactive)
12 | CN1CCN(c2ccc3[nH]c(-c4ccc5[nH]c(CCCc6ccc(N(CCCl)CCCl)cc6)nc5c4)nc3c2)CC1 | > 100 µM (inactive) | > 100 µM (inactive) | > 100 µM (inactive) | 2.09 µM (inactive) | > 100 µM (inactive) | > 100 µM (inactive) | 41.7 µM (inactive) | – | > 100 µM (inactive) | > 100 µM (inactive) | > 100 µM (inactive) | > 100 µM (inactive) | > 100 µM (inactive) | > 100 µM (inactive) | > 100 µM (inactive) | > 100 µM (inactive) | > 100 µM (inactive) | 96.2 µM (inactive) | 75.3 µM (inactive)
13 | COc1cc2c(cc1OC)C1C=NC(C2)c2cc(OC)c(OC)cc21 (stereo not drawn) | > 100 µM (inactive) | > 100 µM (inactive) | > 100 µM (inactive) | > 100 µM (inactive) | 78.7 µM (inactive) | > 100 µM (inactive) | > 100 µM (inactive) | 85.9 µM (inactive) | 97.7 µM (inactive) | > 100 µM (inactive) | > 100 µM (inactive) | > 100 µM (inactive) | > 100 µM (inactive) | > 100 µM (inactive) | 4.49 µM (inactive) | > 100 µM (inactive) | 90.8 µM (inactive) | 69.3 µM (inactive) | –
14 | CC(C)CCCC(C)[C@H]1CC[C@H]2N/C(=N/c3ccccc3)CCC[C@]12C (stereo partly drawn) | 2.97 µM (inactive) | – | 1.14 µM (inactive) | 2.26 µM (inactive) | 2.81 µM (inactive) | 2.06 µM (inactive) | 0.501 µM (active) | – | 2.29 µM (inactive) | 3.56 µM (inactive) | 3.03 µM (inactive) | 3.21 µM (inactive) | 3.35 µM (inactive) | 1.67 µM (inactive) | 2.97 µM (inactive) | 2.43 µM (inactive) | 3.09 µM (inactive) | 1.77 µM (inactive) | 2.51 µM (inactive)
15 | COC(=O)c1ccc(/C=N/c2ccc(S(N)(=O)=O)cc2)cc1 | > 100 µM (inactive) | 84.3 µM (inactive) | > 100 µM (inactive) | 38.2 µM (inactive) | > 100 µM (inactive) | > 100 µM (inactive) | > 100 µM (inactive) | > 100 µM (inactive) | > 100 µM (inactive) | 97.9 µM (inactive) | 59.7 µM (inactive) | – | > 100 µM (inactive) | 22 µM (inactive) | 65.5 µM (inactive) | > 100 µM (inactive) | > 100 µM (inactive) | 43 µM (inactive) | 30.8 µM (inactive)
